Each structure is given as a SMILES string. Where two headings read alike, the source gives them in different places.

The target of assay [1] is T1, COX-1 (Sus scrofa, UniProt A0A287ANF9).
T1 construct: A platelet suspension obtained from pig's blood is preincubated with the test substance; endogenous in cells; host or cells: platelets from pig's blood
Kind of assay: In-vitro test for COX-1 inhibition: fluorimetric quantification of malonaldehyde (MDA) in A23187-activated pig platelet suspension. The following applies: for IC50: pig platelets; for inhibition of COX-1 (in words): comparison of both isoenzymes. Format: cell-based. An outline of the steps:
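Pig platelets (8×10^8 cells/ml) were preincubated with compound for 10 min at 37°C, then stimulated with A23187 ([…]) for 10 min. Malonaldehyde was condensed with thiobarbituric acid and read by fluorescence at 533/550 nm; IC50 taken from a calibration curve.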

The target of assay [2] is T2, COX-2 (Homo sapiens, UniProt P35354).
T2 construct: endogenous in cells; host or cells: LPS-stimulated human monocytes (Ficoll extraction)
T2 sequence (P35354 18-604): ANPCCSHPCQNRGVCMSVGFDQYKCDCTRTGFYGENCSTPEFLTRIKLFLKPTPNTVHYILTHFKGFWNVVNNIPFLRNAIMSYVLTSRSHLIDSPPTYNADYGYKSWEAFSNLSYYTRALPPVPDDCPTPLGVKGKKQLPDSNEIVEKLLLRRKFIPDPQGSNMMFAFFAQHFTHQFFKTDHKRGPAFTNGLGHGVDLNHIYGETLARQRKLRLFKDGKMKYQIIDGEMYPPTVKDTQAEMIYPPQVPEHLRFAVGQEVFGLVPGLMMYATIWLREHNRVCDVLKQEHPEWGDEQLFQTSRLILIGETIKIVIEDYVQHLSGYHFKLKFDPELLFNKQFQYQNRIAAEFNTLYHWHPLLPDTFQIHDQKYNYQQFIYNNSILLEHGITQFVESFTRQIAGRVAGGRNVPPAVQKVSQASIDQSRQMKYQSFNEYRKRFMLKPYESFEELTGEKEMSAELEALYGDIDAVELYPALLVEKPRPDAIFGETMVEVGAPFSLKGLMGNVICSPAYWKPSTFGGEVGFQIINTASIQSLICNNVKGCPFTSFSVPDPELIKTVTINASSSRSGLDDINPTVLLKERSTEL
Kind of assay: In-vitro test for COX-2 inhibition: PGE2 ELISA in LPS-stimulated human monocytes. Format: cell-based. The following applies: for IC50: Table 18, LPS-stimulated human monocytes, PGE2; for inhibition of COX-2 (in words): comparison of both isoenzymes. As for the experimental part:
In-vitro Test Procedure for the Determination of COX-2 Inhibition
The procedure is carried out on LPS-stimulated human monocytes which have been obtained by Ficoll extraction. The measurement variable used is the PGE2 formed, which is determined by means of ELISA.

The mark [3] stands for this setting: read-out: COX-2 inhibition pIC50 (converted).
[4] abbreviates: read-out: COX-2 inhibition IC50.
Where [5] appears, read: Table 9, alkylamides, read-out: MDA pIC50 (converted).

T1 sequence (A0A287ANF9 25-600): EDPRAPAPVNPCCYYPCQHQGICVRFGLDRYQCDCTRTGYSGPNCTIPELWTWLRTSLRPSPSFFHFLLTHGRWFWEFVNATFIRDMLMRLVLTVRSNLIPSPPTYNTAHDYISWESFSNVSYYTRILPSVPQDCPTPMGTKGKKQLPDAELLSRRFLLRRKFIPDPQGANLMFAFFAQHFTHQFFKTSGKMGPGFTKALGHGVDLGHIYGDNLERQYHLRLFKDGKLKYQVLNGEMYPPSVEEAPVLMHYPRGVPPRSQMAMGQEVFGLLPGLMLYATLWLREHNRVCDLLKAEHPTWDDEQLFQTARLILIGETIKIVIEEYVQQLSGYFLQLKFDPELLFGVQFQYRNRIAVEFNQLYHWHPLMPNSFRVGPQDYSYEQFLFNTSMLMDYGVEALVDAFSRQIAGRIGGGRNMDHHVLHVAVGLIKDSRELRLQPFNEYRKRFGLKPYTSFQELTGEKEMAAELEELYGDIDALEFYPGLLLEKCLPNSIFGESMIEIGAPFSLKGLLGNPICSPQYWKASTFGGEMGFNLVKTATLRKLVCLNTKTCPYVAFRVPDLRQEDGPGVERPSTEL

As to `COc1ccc(-c2nc(SCCN(C)C(=O)c3ccccc3)[nH]c2-c2ccc(OC)cc2)cc1` [Compound T29, N^1-{2-[4,5-Bis(4-methoxyphenyl)-1H-imidazol-2ylsulfanyl]ethyl}-N^1-1-methylbenzamide], the IC50 in assay [1] (Table 17, methyl derivatives, read-out: MDA pIC50 (converted)) was 20.9 nM; in assay [2] (setting [3]), 10 nM. Moreover, the “inhibition of COX-1 (in words)” value in assay [1] is given as “approximately equally high potency”. For the same compound, the “inhibition of COX-2 (in words)” value in assay [2] was “approximately equally high potency”.
Turning to `COc1ccc(-c2nc(SCCN(C)C(=O)c3ccccc3)n(C)c2-c2ccc(OC)cc2)cc1` [Compound T31], the IC50 in assay [1] (Table 16, dimethyl compounds, read-out: MDA pIC50 (converted)) is 83.2 nM; in assay [2] (setting [4]), 910 nM.
Regarding `COc1ccc(-c2nc(SCCNC(C)=O)[nH]c2-c2ccc(OC)cc2)cc1` [Compound T49, N^1-{2-[4,5-Bis(4-methoxyphenyl)-1H-imidazol-2-ylsulfanyl]ethyl}acetamide], the values for the IC50 in assay [1] (setting [5]) and in assay [2] (setting [3]) were 10 nM and 2690 nM, respectively.
Turning to `COc1ccc(-c2nc(SCCNC(=O)N(C)C)[nH]c2-c2ccc(OC)cc2)cc1` [Compound T57, N^1-{2-[4,5-Bis(4-methoxyphenyl)-1H-imidazol-2-ylsulfanyl]ethyl}-N′,N′-dimethylurea], the IC50 in assay [1] (Table 13, urea derivatives, read-out: MDA IC50) is 78 nM; in assay [2] (setting [3]) it was 209 nM.
`COc1ccc(-c2nc(SCc3ccccn3)[nH]c2-c2ccc(OC)cc2)cc1` [Compound T69, 2-[4,5-Bis(4-methoxyphenyl)-1H-imidazol-2-ylsulfanylmethyl]pyridine]: the IC50 in assay [1] (Table 5, heteroarylmethyl sulfides, read-out: MDA pIC50 (converted)) is 100 nM; in assay [1] (Table 14, sulfones and their sulfide analogs, read-out: MDA pIC50 (converted)), 100 nM; in assay [2] (setting [3]) it was 240 nM.
As for `CC(=O)NCCSc1nc(-c2ccc(Cl)cc2)c(-c2ccc(Cl)cc2)[nH]1` [Compound T84, N^1-{2-[4,5-Bis(4-chlorophenyl)-1H-imidazol-2-ylsufanyl]ethyl}acetamide], the results for the IC50 in assay [1] (setting [5]) and in assay [2] (setting [3]) were 1100 nM and 2690 nM, respectively.
For the compound `CCN(CC)C(=O)Sc1nc(-c2ccc(Cl)cc2)c(-c2ccc(OC)cc2)[nH]1` [Compound T108, [4-(4-Chlorophenyl)-5-(4-methoxyphenyl)-1H-imidazol-2-yl]-N N-diethyl-carbamic acid thioester], the IC50 in assay [1] (Table 1, carbamic acid thioesters, read-out: MDA pIC50 (converted)) was 158 nM; in assay [2] (setting [3]), 1000 nM.
Regarding `COc1ccc(-c2c(-c3ccc(Cl)cc3)nc(SCc3ccccn3)n2CC(=O)O)cc1` [Compound T109, 2-[4-(4-Chlorophenyl)-5-(4-methoxyphenyl)-2-(2-pyridylmethylsulfanyl) -1H-imidazol-1-yl]acetic acid], the IC50 in assay [1] (Table 6, N1-acetic acid derivatives, read-out: MDA IC50) was 490 nM; in assay [2] (setting [3]) it was 1000 nM. The “inhibition of COX-1 (in words)” value in assay [1] was “medium-strong inhibition”. The “inhibition of COX-2 (in words)” value in assay [2] is listed as “medium-strong inhibition”.
Turning to `COc1ccc(-c2[nH]c(SCCNS(=O)(=O)c3ccc(Cl)cc3)nc2-c2ccc(Cl)cc2)cc1` [Compound T111, N^1-{2-[4-(4-Chlorophenyl)-5-(4-methoxyphenv)-1H-imidazol-2-yl-sufanyl]ethyl}-4-chlorobenzenesulfonamide], the IC50 in assay [1] (Table 8, arylsulfonamides, read-out: MDA pIC50 (converted)) is 129 nM; in assay [2] (setting [4]), 800 nM.
